# Target: T1, 145138 (Aurantiochytrium limacinum, UniProt A0A3S5XF47)
# T1 construct: 6x His-tagged full-length ORF overexpressed in A. limacinum; secreted form purified from medium on Ni-Sepharose; cleaved between L159 and A160; N-terminus ALSSS; 30 kDa on SDS-PAGE
# Test: inhibition of TF-TG hydrolysis ([…],3-TF-DG release), TLC fluorescence scan
# Format: biochemical
# Details: competitive; substrate TF-TG
# T1 sequence (A0A3S5XF47 160-420): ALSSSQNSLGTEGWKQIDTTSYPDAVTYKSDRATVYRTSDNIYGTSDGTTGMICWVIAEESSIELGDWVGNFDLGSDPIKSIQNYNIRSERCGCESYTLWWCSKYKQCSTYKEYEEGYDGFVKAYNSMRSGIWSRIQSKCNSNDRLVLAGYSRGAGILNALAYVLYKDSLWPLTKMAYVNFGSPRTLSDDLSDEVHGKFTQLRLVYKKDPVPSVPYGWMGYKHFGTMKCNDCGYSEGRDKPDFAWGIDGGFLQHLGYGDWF
structure (smiles),measurement,value
CCCCCCCCCCCCCCCCCC(=O)O[C@H](CO)COP(=O)([O-])OCC[N+](C)(C)C [2-acyl LPC],"inhibition of TF-TG hydrolysis (1,3-TF-DG release), TLC fluorescence scan",2-acyl LPC competitively inhibited the release of fatty acyl chain at sn-2 of TG
